Laboratory results published in patent publication US8686150B2 (Sanofi, priority 2011, dated 2014).

Biological target: T1, human full-length recombinant PKC βII (Homo sapiens, UniProt P05771)
T1 construct: Active human full-length recombinant PKC βII; purchased Invitrogen GmbH, Darmstadt, Germany
Assay: Determination of PKC βII inhibition (Caliper mobility-shift kinase assay, Fluorescein-RFARKGSLRQKNV peptide substrate)
Format: biochemical
Conditions: example compounds at a final concentration of 1.14 μM (±0.15 μM)
Experimental: Determination of PKC βII Inhibition
PKC βII Inhibition was Determined According to the Following Protocol:
Active human full-length recombinant PKC βII and the peptide substrate, Fluorescein-RFARKGSLRQKNV, were purchased from Invitrogen GmbH, Darmstadt, Germany. Adenosine-5′-triphosphate (ATP), bovine serum albumine (BSA), dimethylsulphoxide (DMSO), 4-(2-hydroxyethyl)piperazine-1-ethanesulfonic acid (Hepes), Triton X-100, 1,2-Dioleoyl-sn-glycerol (DAG), L-G-Phosphatidyl-L-serine (PS), calcium chloride (CaCl2), and Pluronic F-68 were purchased from Sigma-Aldrich, Munich, Germany. Magnesium chloride, 1 M sodium hydroxide solution, 1M hydrochloric acid solution and EDTA were obtained from Merck Biosciences, Darmstadt, Germany.
Test compounds were diluted to three times the test concentration in buffer 1 (30 mM Hepes-NaOH, pH 7.4, 0.01% Pluronic F-68 and 3% (v/v) DMSO). The PKC enzyme was diluted to a concentration of 30 ng/ml in buffer 2 (30 mM Hepes-NaOH, pH 7.4, 15 mM MgCl2, 150 μM CaCl2, 150 μg/ml PS, 60 μg/ml DAG, and 0.045% (w/v) Triton X-100). The peptide substrate and ATP were diluted to concentrations of 3 μM and 120 μM, respectively, in buffer 2. Two μl of the compound solution were mixed with 2 μl of the diluted enzyme in a 384-well small volume microtiter plate (Greiner, Bio-One, Frickenhausen, Germany), and the kinase reaction was initiated by addition of 2 μl of the solution containing peptide substrate and ATP. After 60 min incubation at 32° C., the reaction was stopped by addition of 20 μl of a solution containing 130 mM Hepes-NaOH, pH 7.4. 0.0195% (v/v) Brij-35, 6.5 mM EDTA. 0.13% chip coating reagent 3 (Caliper Lifescience Inc, Hopkinton, Mass.) and 6.5% (v/v) DMSO. Phosphorylation of the substrate peptide was then detected on a Caliper 3000 instrument essentially as described by Pommereau et al (J. Biomol. Screening 2004, 9(5), 409-416). Separation conditions were as follows: Pressure −0.8 psi, upstream voltage −3000 V, downstream voltage −800 V. Positive controls (buffer 1 instead of compound) and negative controls (buffer 1 instead of compound and buffer 2 instead of kinase solution) were run in parallel on each plate. Fractional turnover (R) was determined as the height of the peak of the phosphorylated peptide product divided by the sum of the unphosphorylated substrate and phosphorylated product peak heights. Percent-inhibition values for the test compounds were determined using the formula % Inhibition=100*(1−(Rcompound−Rnegative control)/(Rpositive control−Rnegative control).
In the following table % inhibition values observed with example compounds at a final concentration of 1.14 μM (±0.15 μM) are listed: […]

T1 sequence (P05771 1-673 isoform P05771-2): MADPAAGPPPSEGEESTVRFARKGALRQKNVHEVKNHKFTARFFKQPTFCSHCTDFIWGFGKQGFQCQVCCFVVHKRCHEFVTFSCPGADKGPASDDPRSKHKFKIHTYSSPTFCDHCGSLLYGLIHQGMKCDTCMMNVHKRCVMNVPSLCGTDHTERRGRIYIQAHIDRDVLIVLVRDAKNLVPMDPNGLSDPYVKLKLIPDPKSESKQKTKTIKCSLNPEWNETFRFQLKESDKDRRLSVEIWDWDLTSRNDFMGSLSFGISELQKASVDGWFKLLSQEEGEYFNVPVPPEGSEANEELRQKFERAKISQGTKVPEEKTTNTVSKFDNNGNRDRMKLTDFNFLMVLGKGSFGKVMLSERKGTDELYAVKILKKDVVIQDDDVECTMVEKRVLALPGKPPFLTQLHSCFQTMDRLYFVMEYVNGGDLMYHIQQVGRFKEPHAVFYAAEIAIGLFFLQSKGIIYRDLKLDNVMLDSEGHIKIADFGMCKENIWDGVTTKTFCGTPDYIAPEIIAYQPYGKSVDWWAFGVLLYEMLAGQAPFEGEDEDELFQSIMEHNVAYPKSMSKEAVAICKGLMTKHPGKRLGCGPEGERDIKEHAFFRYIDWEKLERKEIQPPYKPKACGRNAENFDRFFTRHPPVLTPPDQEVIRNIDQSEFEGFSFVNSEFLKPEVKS

Cc1n[nH]c2nc(-c3ccc(O)cc3F)cc(C(=O)N3C[C@@H](C)NC[C@@H]3C)c12 [Example 429, ((2S,5R)-2,5-Dimethyl-piperazin-1-yl)-[6-(2-fluoro-4-hydroxy-phenyl)-3-methyl-1H-pyrazolo[3,4-b]pyridin-4-yl]-methanone]
inhibition at 1.14 µM: 98%

Cc1n[nH]c2nc(-c3ccc(O)c(F)c3)cc(C(=O)N3CCCN(C)CC3)c12 [Example 365, [6-(3-Fluoro-4-hydroxy-phenyl)-3-methyl-1H-pyrazolo[3,4-b]pyridin-4-yl]-(4-methyl-[1,4]diazepan-1-yl)-methanone]
inhibition at 1.14 µM: 41%

Cc1n[nH]c2nc(-c3ccc(O)cc3)cc(C(=O)NC3CC4(CCNCC4)c4ccccc43)c12 (centres unmarked) [Example 373, 6-(4-Hydroxy-phenyl)-3-methyl-1H-pyrazolo[3,4-b]pyridine-4-carboxylic acid (2,3-dihydro-spiro[1H-indene-1,4′-piperidin]-3-yl)-amide]
inhibition at 1.14 µM: 96%

CCC[C@@H]1CN(C(=O)c2cc(-c3ccc(O)c(F)c3)nc3[nH]nc(C)c23)CCN1 [Example 291, [6-(3-Fluoro-4-hydroxy-phenyl)-3-methyl-1H-pyrazolo[3,4-b]pyridin-4-yl]-((R)-3-propyl-piperazin-1-yl)-methanone]
inhibition at 1.14 µM: 89%

Cc1n[nH]c2nc(-c3ccc(O)cc3)cc(C(=O)N3CC(CN)C3)c12 [Example 90, (3-Aminomethyl-azetidin-1-yl)-[6-(4-hydroxy-phenyl)-3-methyl-1H-pyrazolo[3,4-b]pyridin-4-yl]-methanone]
inhibition at 1.14 µM: 96%

CCC[C@@H]1CN(C(=O)c2cc(-c3ccc(O)cc3F)nc3[nH]nc(C)c23)[C@@H](C)CN1 [Example 448, [6-(2-Fluoro-4-hydroxy-phenyl)-3-methyl-1H-pyrazolo[3,4-b]pyridin-4-yl]-((2S,5R)-2-methyl-5-propyl-piperazin-1-yl)-methanone]
inhibition at 1.14 µM: 99%

Cc1n[nH]c2nc(-c3ccc(O)cc3)cc(C(=O)N3CC4CC3CN4)c12 (centres unmarked) [Example 19, 2,5-Diaza-bicyclo[2.2.1]hept-2-yl-[6-(4-hydroxy-phenyl)-3-methyl-1H-pyrazolo[3,4-b]pyridin-4-yl]-methanone]
inhibition at 1.14 µM: 92%

Cc1n[nH]c2nc(-c3ccc(O)c(F)c3)cc(C(=O)NC3CC4CCC(C3)N4C)c12 (centres unmarked) [Example 301, 6-(3-Fluoro-4-hydroxy-phenyl)-3-methyl-1H-pyrazolo[3,4-b]pyridine-4-carboxylic acid (8-methyl-8-aza-bicyclo[3.2.1]oct-3-yl)-amide]
inhibition at 1.14 µM: 63%

Cc1n[nH]c2nc(-c3ccc(O)cc3)cc(C(=O)NC3CCC(N(C)C)CC3)c12 (centres unmarked) [Example 396, 6-(4-Hydroxy-phenyl)-3-methyl-1H-pyrazolo[3,4-b]pyridine-4-carboxylic acid (4-dimethylamino-cyclohexyl)-amide]
inhibition at 1.14 µM: 39%

Cc1n[nH]c2nc(-c3ccc(O)cc3)cc(C(=O)NCCNC(C)C)c12 [Example 50, 6-(4-Hydroxy-phenyl)-3-methyl-1H-pyrazolo[3,4-b]pyridine-4-carboxylic acid (2-isopropylamino-ethyl)-amide]
inhibition at 1.14 µM: 81%

Cc1n[nH]c2nc(-c3ccc(O)c(F)c3)cc(C(=O)NC3CN4CCC3CC4)c12 (stereo in doubt) [Example 317, (S)-6-(3-Fluoro-4-hydroxy-phenyl)-3-methyl-1H-pyrazolo[3,4-b]pyridine-4-carboxylic acid (1-aza-bicyclo[2.2.2]oct-3-yl)-amide]
inhibition at 1.14 µM: 68%

Cc1n[nH]c2nc(-c3ccc(O)cc3)cc(C(=O)N3CCC4(CC3)CNC4)c12 [Example 255, (2,7-Diaza-spiro[3.5]non-7-yl)-[6-(4-hydroxy-phenyl)-3-methyl-1H-pyrazolo[3,4-b]pyridin-4-yl]-methanone]
inhibition at 1.14 µM: 90%

Cc1n[nH]c2nc(-c3ccc(O)cc3)cc(C(=O)NCCC3CCNCC3)c12 [Example 395, 6-(4-Hydroxy-phenyl)-3-methyl-1H-pyrazolo[3,4-b]pyridine-4-carboxylic acid (2-piperidin-4-yl-ethyl)-amide]
inhibition at 1.14 µM: 42%

Cc1n[nH]c2nc(-c3ccc(O)cc3F)cc(C(=O)NC(C)(C)CCN)c12 [Example 66, 6-(2-Fluoro-4-hydroxy-phenyl)-3-methyl-1H-pyrazolo[3,4-b]pyridine-4-carboxylic acid (3-amino-1,1-dimethyl-propyl)-amide]
inhibition at 1.14 µM: 93%

COc1cccc(C(CN)NC(=O)c2cc(-c3ccc(O)cc3)nc3[nH]nc(C)c23)c1 (centres unmarked) [Example 51, 6-(4-Hydroxy-phenyl)-3-methyl-1H-pyrazolo[3,4-b]pyridine-4-carboxylic acid [2-amino-1-(3-methoxy-phenyl)-ethyl]-amide]
inhibition at 1.14 µM: 85%

Cc1n[nH]c2nc(-c3ccc(O)cc3F)cc(C(=O)N3CCC[C@@H](CN)C3)c12 [Example 59, ((S)-3-Aminomethyl-piperidin-1-yl)-[6-(2-fluoro-4-hydroxy-phenyl)-3-methyl-1H-pyrazolo[3,4-b]pyridin-4-yl]-methanone]
inhibition at 1.14 µM: 80%

Cc1n[nH]c2nc(-c3ccc(O)c(F)c3)cc(C(=O)N[C@H]3C[C@H](N)C3)c12 [Example 309, 6-(3-Fluoro-4-hydroxy-phenyl)-3-methyl-1H-pyrazolo[3,4-b]pyridine-4-carboxylic acid (trans-3-amino-cyclobutyl)-amide]
inhibition at 1.14 µM: 71%

CNC1CCN(C(=O)c2cc(-c3ccc(O)cc3F)nc3[nH]nc(C)c23)CC1 [Example 58, [6-(2-Fluoro-4-hydroxy-phenyl)-3-methyl-1H-pyrazolo[3,4-b]pyridin-4-yl]-(4-methylamino-piperidin-1-yl)-methanone]
inhibition at 1.14 µM: 93%

Cc1n[nH]c2nc(-c3ccc(O)cc3)cc(C(=O)NC(C)(C)CCN)c12 [Example 128, 6-(4-Hydroxy-phenyl)-3-methyl-1H-pyrazolo[3,4-b]pyridine-4-carboxylic acid (3-amino-1,1-dimethyl-propyl)-amide]
inhibition at 1.14 µM: 91%

Cc1n[nH]c2nc(-c3ccc(O)c(F)c3)cc(C(=O)N(C)C3CCN(C)CC3)c12 [Example 331, 6-(3-Fluoro-4-hydroxy-phenyl)-3-methyl-1H-pyrazolo[3,4-b]pyridine-4-carboxylic acid methyl-(1-methyl-piperidin-4-yl)-amide]
inhibition at 1.14 µM: 41%

Cc1n[nH]c2nc(-c3ccc(O)c(F)c3)cc(C(=O)NCC(C)(c3ccccn3)N3CCCC3)c12 (centres unmarked) [Example 370, 6-(3-Fluoro-4-hydroxy-phenyl)-3-methyl-1H-pyrazolo[3,4-b]pyridine-4-carboxylic acid (2-pyridin-2-yl-2-pyrrolidin-1-yl-propyl)-amide]
inhibition at 1.14 µM: 48%

Cc1n[nH]c2nc(-c3ccc(O)cc3)cc(C(=O)N[C@@H]3[C@H]4CC[C@H](C4)[C@H]3CN)c12 [Example 228, 6-(4-Hydroxy-phenyl)-3-methyl-1H-pyrazolo[3,4-b]pyridine-4-carboxylic acid (3-aminomethyl-bicyclo[2.2.1]hept-2-yl)-amide]
inhibition at 1.14 µM: 91%

Cc1n[nH]c2nc(-c3ccc(O)c(F)c3)cc(C(=O)NCC(C)(CN3CCCC3)c3ccccn3)c12 (centres unmarked) [Example 371, 6-(3-Fluoro-4-hydroxy-phenyl)-3-methyl-1H-pyrazolo[3,4-b]pyridine-4-carboxylic acid (2-methyl-2-pyridin-2-yl-3-pyrrolidin-1-yl-propyl)-amide]
inhibition at 1.14 µM: 31%

NC1CCN(C(=O)c2cc(-c3ccc(O)cc3)nc3[nH]nc(C(F)(F)F)c23)CC1 [Example 399, (4-Amino-piperidin-1-yl)-[6-(4-hydroxy-phenyl)-3-trifluoromethyl-1H-pyrazolo[3,4-b]pyridin-4-yl]-methanone]
inhibition at 1.14 µM: 60%

Cc1n[nH]c2nc(-c3ccc(O)cc3)cc(C(=O)N3CCCC(N)C3)c12 (centres unmarked) [Example 76, (3-Amino-piperidin-1-yl)-[6-(4-hydroxy-phenyl)-3-methyl-1H-pyrazolo[3,4-b]pyridin-4-yl]-methanone]
inhibition at 1.14 µM: 88%

Cc1n[nH]c2nc(-c3ccc(O)cc3)cc(C(=O)N3CCCC4(CCNC4)C3)c12 (centres unmarked) [Example 263, (2,7-Diaza-spiro[4.5]dec-7-yl)-[6-(4-hydroxy-phenyl)-3-methyl-1H-pyrazolo[3,4-b]pyridin-4-yl]-methanone]
inhibition at 1.14 µM: 65%
